Source: publication PMC5688144, “Assay interference and off-target liabilities of reported histone acetyltransferase inhibitors” (Nature Communications, 2017)
Like-named read-outs stand apart in the source and are kept apart here.

Assays:
[1] = Absorbance spectra; assay type: physicochemical; settings: for Absorption max (nm) / Absorbance counter-screen: 25 mM sodium phosphate, pH 7.0; for Absorbance counter-screen: 300-750 nm; for Molar absorptivity: at absorption max
Protocol: Selected test compounds were assessed for absorption between 300 and 750 nm. Most compound absorption spectra were obtained at 100, 50, and 10 μM final compound concentrations in ALARM NMR buffer (25 mM sodium phosphate, pH 7.0). Final concentration of DMSO was constant at 2.0% (v/v). Compounds were allowed to incubate at RT in buffer for 10 min in UV-transparent polystyrene 384-well plates. Absorbance spectra were then obtained on a SpectraMax M3 or BMG Labtech CLARIOstar microplate reader at 25 °C. Significant absorbance was defined as molar absorptivity constants greater than 2000 M^−1 cm^−1 at wavelengths greater than 300 nm.

[2] = biological target: T1, AmpC β-lactamase (Escherichia coli, UniProt P00811); test: biochemical; parameters: species or system E. coli; settings: for AmpC aggregation counter-screen / AmpC counter-screen result: 10 μM compound; for AmpC aggregation counter-screen: ± 0.01% Triton X-100; for AmpC counter-screen result: detergent-sensitive modulation; for inhibition at 10 µM: read-out: % Inhibition, AmpC
T1 construct: Recombinant E. coli AmpC (amino acids 20–377); purchased MyBioSource.com
T1 sequence (P00811 20-377): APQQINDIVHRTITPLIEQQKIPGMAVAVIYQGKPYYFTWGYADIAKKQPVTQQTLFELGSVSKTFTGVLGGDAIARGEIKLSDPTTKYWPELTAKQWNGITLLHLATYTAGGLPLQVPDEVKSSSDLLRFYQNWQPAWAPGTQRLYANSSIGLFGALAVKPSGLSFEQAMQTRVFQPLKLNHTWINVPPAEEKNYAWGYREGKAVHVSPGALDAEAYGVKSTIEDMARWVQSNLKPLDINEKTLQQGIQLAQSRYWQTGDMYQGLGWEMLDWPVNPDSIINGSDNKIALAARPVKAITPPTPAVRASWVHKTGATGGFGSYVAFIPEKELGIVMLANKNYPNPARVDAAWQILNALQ
Protocol: Selected compounds were assessed for aggregation using a modified AmpC β-lactamase counter-screen[24],[32],[64]. Recombinant E. coli AmpC (amino acids 20–377) was obtained from MyBioSource.com. Testing was performed in ALARM NMR buffer (25 mM sodium phosphate, pH 7.0) in flat-bottom UV-transparent 96-well microplates in 150 μL reaction volumes. Compounds were tested in triplicate at 10 μM final concentrations in either the presence or absence of freshly-prepared 0.01% Triton X-100 (v/v). Final concentration of DMSO was 2.0% (v/v). Compounds were incubated with ~5 nM AmpC in 147 μL reaction buffer for 5 min at RT, followed by the addition of 3 μL of nitrocefin substrate (100 μM final concentration). Reaction solutions were gently mixed by pipetting up and down three times using a multichannel pipette. […] Percent activity was normalized to DMSO-only controls. Fluconazole and lidocaine were included as negative aggregation control compounds. Rottlerin was included as a positive aggregation control compound. Aggregators were defined as compounds with significant detergent-dependent changes in AmpC activity (t-test, adjusted P-value <0.05; mean differences greater than 30%). Activators were defined as compounds that increased AmpC enzymatic activity.

[3] = tested on: GCN5; settings: cited from earlier work
[4] = tested on: CBP; settings: cited from earlier work; for IC50: original report, 22 (Supplementary References)
[5] = tested on: Tip60; settings: cited from earlier work; for IC50: original report, 24 (Supplementary References)
[6] = tested on: p300/CBP; settings: cited from earlier work
[7] = biological target: T2, PCAF (Homo sapiens, UniProt Q92831); settings: cited from earlier work
T2 construct: Reaction Biology Corporation (assays run by this contract lab)
T2 sequence (Q92831 whole entry, species assumed): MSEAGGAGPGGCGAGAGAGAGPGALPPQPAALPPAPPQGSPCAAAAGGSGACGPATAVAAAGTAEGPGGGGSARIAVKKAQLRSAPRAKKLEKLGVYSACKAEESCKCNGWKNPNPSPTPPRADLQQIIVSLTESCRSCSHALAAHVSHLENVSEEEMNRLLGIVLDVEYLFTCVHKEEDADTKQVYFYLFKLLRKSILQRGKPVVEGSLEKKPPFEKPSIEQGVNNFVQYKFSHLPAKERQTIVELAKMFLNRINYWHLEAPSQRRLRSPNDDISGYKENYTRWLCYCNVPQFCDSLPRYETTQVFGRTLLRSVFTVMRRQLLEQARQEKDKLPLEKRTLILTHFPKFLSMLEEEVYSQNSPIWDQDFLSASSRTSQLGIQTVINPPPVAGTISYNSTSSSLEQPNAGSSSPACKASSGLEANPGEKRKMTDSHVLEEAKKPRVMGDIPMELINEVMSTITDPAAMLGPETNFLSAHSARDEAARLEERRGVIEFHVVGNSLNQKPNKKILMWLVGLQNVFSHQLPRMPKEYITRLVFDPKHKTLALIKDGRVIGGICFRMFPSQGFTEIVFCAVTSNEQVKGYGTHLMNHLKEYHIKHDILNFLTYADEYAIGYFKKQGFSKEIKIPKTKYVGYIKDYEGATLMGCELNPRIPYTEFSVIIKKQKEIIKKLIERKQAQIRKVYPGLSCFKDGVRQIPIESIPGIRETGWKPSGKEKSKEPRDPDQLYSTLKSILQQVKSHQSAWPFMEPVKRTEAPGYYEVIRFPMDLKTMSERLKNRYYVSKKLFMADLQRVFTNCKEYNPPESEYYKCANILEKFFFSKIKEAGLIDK

[8] = @ 100 µM, 20 (Supplementary References)
[9] = original report, 22 (Supplementary References)
[10] = @ 25 µM, ref 13 (Supplementary References)
[11] = original report, 27 (Supplementary References)
[12] = @ 200 µM, ref 19 (Supplementary References)
[13] = @ 100 µM, ref 25 (Supplementary References)

Molecule	Absorption max (nm) [1]	Absorbance counter-screen [1]	AmpC aggregation counter-screen [2]	Molar absorptivity [1]	further results
COc1ccc(S(=O)(=O)ON=C2C=C(C)C(=O)C(C)=C2)cc1 [Compound 5, L002]	290 nm	Negative	Detergent-insensitive		IC50 ([3]; HotSpot assay, ref 9 (Supplementary References)): 33.9 µM; % inhibition, CBP ([4]; @ 100 µM, ref 9 (Supplementary References)): 32%; % inhibition, Tip60 [5, 8]: 2%
C=C1C(=O)O[C@H](CCC)[C@H]1C(=O)O [Compound 6, MB-3]	Nominal	Negative	Detergent-insensitive		IC50 [3, 9]: 100 µM; IC50 [4]: 500 µM
Clc1ccc(-c2csc(NN=C3CCCC3)n2)cc1 [Compound 7, CPTH2]	285 nm	Negative	Detergent-sensitive (Aggregators were defined as compounds with significant detergent-dependent changes in AmpC activity (t-test, adjusted P-value <0.05; mean differences greater than 30%))		AmpC counter-screen result [2]: likely aggregators; IC50 [3, 9]: ~500 µM
CCCCCCCCCCCC1=C(O)C(=O)C=C(O)C1=O [Compound 9, Embelin]	315 nm	Flagged (Significant absorbance was defined as molar absorptivity constants greater than 2000 M^−1 cm^−1 at wavelengths greater than 300 nm)	Detergent-sensitive (Aggregators were defined as compounds with significant detergent-dependent changes in AmpC activity (t-test, adjusted P-value <0.05; mean differences greater than 30%))	21000 M⁻¹ cm⁻¹	% inhibition, p300/CBP [6, 10]: 25%; % inhibition, Tip60 [5, 10]: 25%
O=C(O[C@@H]1Cc2c(O)cc(O)cc2O[C@@H]1c1cc(O)c(O)c(O)c1)c1cc(O)c(O)c(O)c1 [Compound 10, (-)-Epigallocatechin gallate]	290 nm	Negative	Detergent-insensitive		IC50 [4]: 50 µM; IC50 [5]: 70 µM
COc1cc(/C=C/C(=O)CC(=O)/C=C/c2ccc(O)c(OC)c2)ccc1O [Compound 11, Curcumin]	425 nm	Flagged (Significant absorbance was defined as molar absorptivity constants greater than 2000 M^−1 cm^−1 at wavelengths greater than 300 nm)	Detergent-sensitive (Aggregators were defined as compounds with significant detergent-dependent changes in AmpC activity (t-test, adjusted P-value <0.05; mean differences greater than 30%))	20000 M⁻¹ cm⁻¹	% inhibition, PCAF ([7]; @ 100 µM, ref 15 (Supplementary References)): < 10%
CCCCCCCCCCCCCCCc1cccc(O)c1C(=O)O [Compound 14, Anacardic acid]	305 nm	Negative	Detergent-sensitive (Aggregators were defined as compounds with significant detergent-dependent changes in AmpC activity (t-test, adjusted P-value <0.05; mean differences greater than 30%))		IC50 [6, 11]: 8.5 µM
CCCCCCCc1ccc(CCc2cccc(O)c2C(=O)O)cc1 [Compound 15, MG 149]	300 nm	Negative	Detergent-insensitive		% inhibition, p300/CBP [6, 12]: 30%; AmpC counter-screen result [2]: negative; % inhibition, PCAF [7, 12]: 3%; IC50 [5]: 74 µM
Cc1cc2c(C(C)C)c(O)c(O)c(C=O)c2c(O)c1-c1c(C)cc2c(C(C)C)c(O)c(O)c(C=O)c2c1O [Compound 16, Gossypol]	385 nm	Flagged (Significant absorbance was defined as molar absorptivity constants greater than 2000 M^−1 cm^−1 at wavelengths greater than 300 nm)	Detergent-sensitive (Aggregators were defined as compounds with significant detergent-dependent changes in AmpC activity (t-test, adjusted P-value <0.05; mean differences greater than 30%))	22000 M⁻¹ cm⁻¹	IC50 [4]: ~25 µM; IC50 [7, 11]: ~50 µM; % inhibition, Tip60 [5, 8]: < 10%
COc1cc(/C=C/c2cc(/C=C/c3ccc(O)c(OC)c3)n(-c3ccc(C(=O)[O-])cc3)n2)ccc1O.[Na+] [Compound 17, CTK7A]	325 nm	Flagged (Significant absorbance was defined as molar absorptivity constants greater than 2000 M^−1 cm^−1 at wavelengths greater than 300 nm)	Detergent-sensitive (activator)	30000 M⁻¹ cm⁻¹	inhibition at 10 µM [2]: -52 ± 35%; % inhibition, GCN5 ([3]; @ 40 µM, ref 21 (Supplementary References)): 40%
Cl.Cl.O=C(O)Cn1nnc(-c2ccc(CN(CCCCOc3ccc(CN4CCCC4)cc3)CCc3ccccc3)cc2)n1 [Compound 20, TH1834]	Nominal	Negative	Detergent-sensitive (activator)		AmpC counter-screen result [2]: likely aggregators; inhibition at 10 µM [2]: -63 ± 26%; IC50 [5]: ~500 µM
CCCC1(c2ccccc2)NC(=O)N(CC(=O)N(C)Cc2c(F)cccc2Cl)C1=O (stereo not drawn) [Compound 21, N-[(2-chloro-6-fluorophenyl)methyl]-2-(2,5-dioxo-4-phenyl-4-propylimidazolidin-1-yl)-N-methylacetamide]	Nominal	Negative	Detergent-insensitive		% inhibition, p300/CBP [6, 13]: < 25%; % inhibition, GCN5 [3, 13]: < 25%
Plumbagin [Compound 8]	420 nm	Flagged (Significant absorbance was defined as molar absorptivity constants greater than 2000 M^−1 cm^−1 at wavelengths greater than 300 nm)	Detergent-insensitive	3200 M⁻¹ cm⁻¹	% inhibition, PCAF ([7]; @ 50 µM, 23 (Supplementary References)): ~ 50%
